Target: human GABA A receptor α5β3γ2 (Homo sapiens (Human), UniProt P18507+P31644)
Test: [3H]flumazenil competition binding assay, human GABA A α5β3γ2 receptors expressed in HEK293 cells
Settings: human receptor; displacement of [3H]flumazenil (0.5 nM); means of two determinations; read-out: hKi GABAAa5
Summary of the method: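 Ki values, each the mean of two runs, derive from displacement of [3H]flumazenil from human α5β3γ2 GABA A receptors transiently expressed in HEK293 membranes. Binding ran 1 h at 4° C in Krebs-tris, pH 7.5, before filter harvest and scintillation counting.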

Structure (SMILES) | Ki
Cc1onc(-c2ccc(F)cc2)c1COc1ccc(C(=O)NCC2CC2)cn1 [Example 106, N-Cyclopropylmethyl-6-[3-(4-fluoro-phenyl)-5-methyl-isoxazol-4-ylmethoxy]-nicotinamide] | 1.5 nM
O=C(NC1CCOCC1)c1ccc(OCc2conc2-c2ccc(F)cc2)nc1 [Example 324, 6-[3-(4-Fluoro-phenyl)-isoxazol-4-ylmethoxy]-N-(tetrahydro-pyran-4-yl)-nicotinamide] | 10.6 nM
CC(C)NC(=O)c1ccc(OCc2c(-c3ccccc3)noc2C(F)(F)F)nc1 [Example 133, N-Isopropyl-6-(3-phenyl-5-trifluoromethyl-isoxazol-4-ylmethoxy)-nicotinamide] | 41.6 nM
O=C(NCCO)c1ccc(OCc2conc2-c2ccc(F)cc2)nc1 [Example 338, 6-[3-(4-Fluoro-phenyl)-isoxazol-4-ylmethoxy]-N-(2-hydroxy-ethyl)-nicotinamide] | 23.3 nM
O=C(N[C@@H]1CCC[C@H]1O)c1ccc(OCc2conc2-c2ccc(F)cc2)nc1 (single isomer, unassigned) [Example 332, 6-[3-(4-Fluoro-phenyl)-isoxazol-4-ylmethoxy]-N-((1R,2R)-2-hydroxy-cyclopentyl)-nicotinamide or 6-[3-(4-fluoro-phenyl)-isoxazol-4-ylmethoxy]-N-((1S,2S)-2-hydroxy-cyclopentyl)-nicotinamide] | 22.6 nM
Cc1onc(-c2ccc(F)c(F)c2)c1COc1ccc(C(=O)NCC(C)(C)O)cn1 [Example 269, 6-[3-(3,4-Difluoro-phenyl)-5-methyl-isoxazol-4-ylmethoxy]-N-(2-hydroxy-2-methyl-propyl)-nicotinamide] | 6.7 nM
Cc1noc(-c2ccc(OCc3c(-c4ccccc4)noc3C)nc2)n1 [Example 245, 5-(3-Methyl-[1,2,4]oxadiazol-5-yl)-2-(5-methyl-3-phenyl-isoxazol-4-ylmethoxy)-pyridine] | 3.3 nM
Cc1onc(-c2cccc(F)c2)c1COc1ccc(C(=O)N2CCOCC2)cn1 [Example 94, {6-[3-(3-Fluoro-phenyl)-5-methyl-isoxazol-4-ylmethoxy]-pyridin-3-yl}-morpholin-4-yl-methanone] | 48.1 nM
O=C(NCC(O)C(F)(F)F)c1ccc(OCc2conc2-c2ccc(F)cc2)nc1 (stereo not shown) [Example 333, 6-[3-(4-Fluoro-phenyl)-isoxazol-4-ylmethoxy]-N-(3,3,3-trifluoro-2-hydroxy-propyl)-nicotinamide] | 13.1 nM
Cc1onc(-c2ccccc2)c1COc1ccc(C(F)(F)F)cn1 [Example 4, 2-(5-Methyl-3-phenyl-isoxazol-4-ylmethoxy)-5-trifluoromethylpyridine] | 60.8 nM
COC(=O)c1ccc(OCc2c(-c3ccccn3)noc2C)nc1 [Example 271, 6-(5-Methyl-3-pyridin-2-yl-isoxazol-4-ylmethoxy)-nicotinic acid methyl ester] | 3.8 nM
O=C(c1ccc(OCc2c(-c3ccc(F)cc3)noc2C(F)(F)F)nc1)N1CCS(=O)(=O)CC1 [Example 145, (1,1-Dioxo-1λ6-thiomorpholin-4-yl)-{6-[3-(4-fluoro-phenyl)-5-trifluoromethyl-isoxazol-4-ylmethoxy]-pyridin-3-yl}-methanone] | 58.9 nM
Cc1onc(-c2ccc(Cl)cn2)c1COc1ccc(C(=O)NCC(F)(F)F)cn1 [Example 308, 6-[3-(5-Chloro-pyridin-2-yl)-5-methyl-isoxazol-4-ylmethoxy]-(2,2,2-trifluoro-ethyl)-nicotinamide] | 0.2 nM
O=C(NC(CO)CO)c1ccc(OCc2conc2-c2ccc(Cl)cc2)nc1 [Example 353, 6-[3-(4-Chloro-phenyl)-isoxazol-4-ylmethoxy]-N-(2-hydroxy-1-hydroxymethyl-ethyl)-nicotinamide] | 5.5 nM
Cc1onc(-c2ccncc2)c1COc1ccc(C(=O)NCC(F)(F)F)cn1 [Example 146, 6-(5-Methyl-3-pyridin-4-yl-isoxazol-4-ylmethoxy)-N-(2,2,2-trifluoro-ethyl)-nicotinamide] | 5.9 nM
Cc1onc(-c2ccccc2F)c1COc1ccc(C(=O)NC2CCOCC2)cn1 [Example 87, 6-[3-(2-Fluoro-phenyl)-5-methyl-isoxazol-4-ylmethoxy]-N-(tetrahydro-pyran-4-yl)-nicotinamide] | 4.6 nM
O=C(NCCO)c1ccc(OCc2conc2-c2ccccn2)nc1 [Example 363, N-(2-Hydroxy-ethyl)-6-(3-pyridin-2-yl-isoxazol-4-ylmethoxy)-nicotinamide] | 19.9 nM
Cc1nnc(-c2ccc(OCc3c(-c4ccccc4)noc3C)nc2)[nH]1 [Example 246, 2-(5-Methyl-3-phenyl-isoxazol-4-ylmethoxy)-5-(5-methyl-4H-[1,2,4]triazol-3-yl)-pyridine] | 1.1 nM

Continued, values first:

Ki | Structure (SMILES)
17.8 nM | O=C(NC1CCOCC1)c1ccc(OCc2conc2-c2ccccn2)nc1 [Example 358, 6-(3-Pyridin-2-yl-isoxazol-4-ylmethoxy)-N-(tetrahydro-pyran-4-yl)-nicotinamide]
9.3 nM | Cc1onc(-c2ccc(F)c(F)c2)c1COc1ccc(C(=O)NC(C)(C)CO)cn1 [Example 267, 6-[3-(3,4-Difluoro-phenyl)-5-methyl-isoxazol-4-ylmethoxy]-N-(2-hydroxy-1,1-dimethyl-ethyl)-nicotinamide]
2.9 nM | CCNC(=O)c1ccc(OCc2c(-c3ccccc3)noc2C)nc1 [Example 9, N-Ethyl-6-(5-methyl-3-phenyl-isoxazol-4-ylmethoxy)-nicotinamide]
11.3 nM | COC(=O)c1ccc(OCc2c(-c3ccncn3)noc2C)nc1 [Example 312, 6-(5-Methyl-3-pyrimidin-4-yl-isoxazol-4-ylmethoxy)-nicotinic acid methyl ester]
26.3 nM | Cc1onc(-c2cccnc2)c1COc1ccc(C(=O)NC2CC2)cn1 [Example 157, N-Cyclopropyl-6-(5-methyl-3-pyridin-3-yl-isoxazol-4-ylmethoxy)-nicotinamide]
3 nM | Cc1onc(-c2cccc(F)c2)c1COc1ccc(C(=O)NCC(F)(F)F)cn1 [Example 89, 6-[3-(3-Fluoro-phenyl)-5-methyl-isoxazol-4-ylmethoxy]-N-(2,2,2-trifluoro-ethyl)-nicotinamide]
4.3 nM | CNC(=O)c1ccc(OCc2c(-c3ccccc3)noc2C)nc1 [Example 8, N-Methyl-6-(5-methyl-3-phenyl-isoxazol-4-ylmethoxy)-nicotinamide]
0.5 nM | Cc1onc(-c2ccc(Cl)cc2)c1COc1ccc(C(=O)N[C@@H](C)CO)cn1 [Example 257, 6-[3-(4-Chloro-phenyl)-5-methyl-isoxazol-4-ylmethoxy]-N—((S)-2-hydroxy-1-methyl-ethyl)-nicotinamide]
27.9 nM | Cc1onc(-c2cccnc2)c1COc1ccc(C(=O)NC2CCOCC2)cn1 [Example 159, 6-(5-Methyl-3-pyridin-3-yl-isoxazol-4-ylmethoxy)-N-(tetrahydro-pyran-4-yl)-nicotinamide]
68.1 nM | Cc1onc(-c2ccccc2)c1COc1ccc(C(=O)NC2COCc3ccccc32)cn1 (stereo not shown) [Example 79, N-Isochroman-4-yl-6-(5-methyl-3-phenyl-isoxazol-4-ylmethoxy)-nicotinamide]
4.5 nM | Cc1onc(-c2ccccc2)c1COc1ccc(C(=O)NC2CN(C(=O)OC(C)(C)C)C2)cn1 [Example 216, 3-{[6-(5-Methyl-3-phenyl-isoxazol-4-ylmethoxy)-pyridine-3-carbonyl]-amino}-azetidine-1-carboxylic acid tert-butyl ester]
7.3 nM | Cc1onc(-c2ccccc2)c1COc1ccc(C(=O)NC2CCN(Cc3ccccc3)CC2)cn1 [Example 37, N-(1-Benzyl-piperidin-4-yl)-6-(5-methyl-3-phenyl-isoxazol-4-ylmethoxy)-nicotinamide]
6.5 nM | Cc1cc(CNC(=O)c2ccc(OCc3c(-c4ccccc4)noc3C)nc2)c(=O)[nH]n1 [Example 23, N-(6-Methyl-3-oxo-2,3-dihydro-pyridazin-4-ylmethyl)-6-(5-methyl-3-phenyl-isoxazol-4-ylmethoxy)-nicotinamide]
0.6 nM | Cc1onc(-c2ccccc2)c1COc1ccc(C(=O)NC(C)C(F)(F)F)cn1 (stereo not shown) [Example 234, 6-(5-Methyl-3-phenyl-isoxazol-4-ylmethoxy)-N-(2,2,2-trifluoro-1-methyl-ethyl)-nicotinamide]
5.2 nM | COCCCNC(=O)c1ccc(OCc2c(-c3ccccc3)noc2C)nc1 [Example 15, N-(3-Methoxy-propyl)-6-(5-methyl-3-phenyl-isoxazol-4-ylmethoxy)-nicotinamide]
10.1 nM | Cc1onc(-c2ccccc2)c1COc1ccc(NC(=O)C2CC2)cn1 [Example 182, Cyclopropanecarboxylic acid [6-(5-methyl-3-phenyl-isoxazol-4-ylmethoxy)-pyridin-3-yl]-amide]
1.1 nM | Cc1onc(-c2ccccn2)c1COc1ccc(C(=O)NC2CCOCC2)cn1 [Example 272, 6-(5-Methyl-3-pyridin-2-yl-isoxazol-4-ylmethoxy)-N-(tetrahydro-pyran-4-yl)-nicotinamide]
6 nM | Cc1onc(-c2ccncn2)c1COc1ccc(C(=O)NCCO)cn1 [Example 320, N-(2-Hydroxy-ethyl)-6-(5-methyl-3-pyrimidin-4-yl-isoxazol-4-ylmethoxy)-nicotinamide]
1.5 nM | Cc1onc(-c2ccccn2)c1COc1ccc(C(=O)NCC2CC2)cn1 [Example 277, N-Cyclopropylmethyl-6-(5-methyl-3-pyridin-2-yl-isoxazol-4-ylmethoxy)-nicotinamide]
38.7 nM | Cc1nc(OCc2c(-c3ccccc3)noc2C)ccc1C(=O)NC1CCOCC1 [Example 60, 2-Methyl-6-(5-methyl-3-phenyl-isoxazol-4-ylmethoxy)-N-(tetrahydro-pyran-4-yl)-nicotinamide]
3.2 nM | Cc1cccc(-c2noc(C)c2COc2ccc(C(=O)NC3CCOCC3)cn2)c1 [Example 249, 6-(5-Methyl-3-m-tolyl-isoxazol-4-ylmethoxy)-N-(tetrahydro-pyran-4-yl)-nicotinamide]
14.2 nM | COC(=O)c1ccc(OCc2c(-c3ccccc3)noc2C)nc1 [Example 7, 6-(5-Methyl-3-phenyl-isoxazol-4-ylmethoxy)-nicotinic acid methyl ester]

From patent US8846719B2, “Isoxazolo-pyridine derivatives” (Roche Palo Alto LLC, priority 2007, dated 2014)
